Converted amounts (≈) assume the structure as drawn.
Test system: primary human vascular smooth muscle cells
Assay: Inhibition of cell proliferation, CyQUANT NF Cell Proliferation Assay
Assay type: cell-based
Details: drug in solution, FIG. 11A, read-out: IC50, dose required to achieve 50% inhibition of cell proliferation
Experimental: Cell viability was determined using CyQUANT™ NF Cell Proliferation Assay kit (Cat #C35006, ThermoFisher Scientific). Fluorescent readings were taken by a microplate reader (Cytation 5, BioTek Instruments Inc., Vermont). […] A) Dose-response effect following treatment of cells with Paclitaxel (PTX) or Sirolimus (SRL) in solution. From the dose-response study, IC50 for each drug was determined. IC50 is the dose that is required to achieve 50% inhibition of cell proliferation with respect to untreated cell.
Determination of Synergistic Effect of Combination Paclitaxel and Sirolimus: The synergistic effect of the combination treatment was determined in vitro using human vascular smooth muscle cells. The IC50 i.e., the drug amount required to inhibit cell proliferation by 50% with respect to the untreated cells was determined using cell viability assay. Drug combination index (CI) was used to determine if the combination treatment is synergistic (CI=<1), additive (CI=1) or antagonistic (CI>1).
Method: Primary human vascular smooth muscle cells (VSMCs) were incubated with different doses of the encapsulated drug(s) for six days. Cell viability was determined using CyQUANT™ NF Cell Proliferation Assay kit (Cat #C35006, ThermoFisher Scientific). Fluorescent readings were taken by a microplate reader (Cytation 5, BioTek Instruments Inc., Vermont).

| Structure (SMILES) | IC50 [µg/mL] |
| --- | --- |
| CC(=O)O[C@H]1C(=O)[C@@]2(C)[C@H]([C@H](OC(=O)c3ccccc3)[C@]3(O)C[C@H](OC(=O)[C@H](O)[C@@H](NC(=O)c4ccccc4)c4ccccc4)C(C)=C1C3(C)C)[C@]1(OC(C)=O)CO[C@@H]1C[C@@H]2O [PTX, Paclitaxel] | 1.16 (≈ 1.35 µM) |
| CO[C@H]1C[C@@H]2CC[C@@H](C)[C@@](O)(O2)C(=O)C(=O)N2CCCC[C@H]2C(=O)O[C@H]([C@H](C)C[C@@H]2CC[C@@H](O)[C@H](OC)C2)CC(=O)[C@H](C)/C=C(\C)[C@@H](O)[C@@H](OC)C(=O)[C@H](C)C[C@H](C)/C=C/C=C/C=C/1C [SRL, Sirolimus] | 29.1 (≈ 31.8 µM) |

From patent publication US20220193310A1, “DUAL AGENT NANOPARTICLE COMPOSITION FOR COATING MEDICAL DEVICES” (THE CLEVELAND CLINIC FOUNDATION, priority 2020, published 2022)
